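A five-concentration, 48-hour dose response in 96-well plates underlies each endpoint, interpolated linearly between surrounding concentrations. TGI: total growth inhibition.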
How the values were obtained:
Experiment in all cases: NCI tumour cell line growth inhibition, 48 h
[1] = system: SR leukemia
[2] = system: NCI-H23 lung
[3] = system: K-562 leukemia
[4] = system: LOX IMVI melanoma
[5] = system: HCC-2998 colon
[6] = system: UO-31 renal
[7] = system: COLO 205 colon
[8] = system: MDA-MB-435
[9] = system: SF-295 CNS
[10] = system: T-47D breast
[11] = system: NCI/ADR-RES ovarian
[12] = system: SF-539 CNS
[13] = system: SNB-75 CNS
[14] = system: SK-MEL-5 melanoma
[15] = system: TK-10 renal
[16] = system: UACC-257 melanoma
[17] = system: U251 CNS
[18] = system: OVCAR-3 ovarian
[19] = system: NCI-H522 lung
[20] = system: SF-268 CNS
[21] = system: SW-620 colon
[22] = system: HOP-62 NSCLC
[23] = system: SNB-19 CNS
[24] = system: 786-0 renal
[25] = system: RPMI-8226 leukemia
[26] = system: SN12C renal
[27] = system: MOLT-4 leukemia
[28] = system: UACC-62 melanoma
[29] = system: EKVX NSCLC
[30] = system: A498 renal
[31] = system: OVCAR-4 ovarian
[32] = system: MDA-N
[33] = system: CCRF-CEM leukemia
[34] = system: HL-60(TB) leukemia
[35] = system: HCT-15 colon
[36] = system: SK-MEL-2 melanoma
[37] = system: A549 NSCLC
[38] = system: PC-3 prostate
[39] = system: SK-OV-3 ovarian
[40] = system: MALME-3M melanoma
[41] = system: MDA-MB-231 breast
[42] = system: OVCAR-8 ovarian
[43] = system: SK-MEL-28 melanoma
[44] = system: M14 melanoma
[45] = system: HOP-92 NSCLC
[46] = system: CAKI-1 renal
[47] = system: ACHN renal
[48] = system: HS 578T breast
[49] = system: NCI-H226 lung
[50] = system: HCT-116 colon
[51] = system: RXF 393 renal
[52] = system: OVCAR-5 ovarian
[53] = system: IGROV1 ovarian
[54] = system: HT29 colon
[55] = system: KM12 colon
[56] = system: NCI-H460 lung
[57] = system: DU-145 prostate
[58] = system: BT-549 breast
[59] = system: MCF7 breast

CC(C)NC(=O)OCc1c(COC(=O)NC(C)C)c(-c2ccc[n+](COC(=O)C(C)C)c2)n2c1CCC2
TGI [1]: 97.4 µM | TGI [2]: > 100 µM | TGI [3]: > 100 µM | TGI [4]: > 100 µM | TGI [5]: > 100 µM | TGI [6]: > 100 µM | TGI [7]: > 100 µM | TGI [8]: > 100 µM | TGI [9]: > 100 µM | TGI [10]: > 100 µM | TGI [11]: > 100 µM | TGI [12]: > 83.3 µM | TGI [13]: > 100 µM | TGI [14]: > 100 µM | TGI [15]: > 100 µM | TGI [16]: > 100 µM | TGI [17]: > 100 µM | TGI [18]: > 100 µM | TGI [19]: 91.4 µM | TGI [20]: > 100 µM | TGI [21]: > 100 µM | TGI [22]: > 100 µM | TGI [23]: > 100 µM | TGI [24]: > 100 µM | TGI [25]: > 100 µM | TGI [26]: > 100 µM | TGI [27]: > 79.3 µM | TGI [28]: > 100 µM | TGI [29]: > 100 µM | TGI [30]: 61.2 µM | TGI [31]: > 100 µM | TGI [32]: > 100 µM | TGI [33]: > 91.2 µM | TGI [34]: > 59.4 µM | TGI [35]: > 100 µM | TGI [36]: > 100 µM | TGI [37]: > 100 µM | TGI [38]: > 100 µM | TGI [39]: > 100 µM | TGI [40]: > 100 µM | TGI [41]: > 100 µM | TGI [42]: > 100 µM | TGI [43]: > 100 µM | TGI [44]: > 100 µM | TGI [45]: > 94.6 µM | TGI [46]: 74.2 µM | TGI [47]: > 100 µM | TGI [48]: > 100 µM | TGI [49]: > 100 µM | TGI [50]: > 100 µM | TGI [51]: > 89.6 µM | TGI [52]: > 100 µM | TGI [53]: > 100 µM | TGI [54]: > 100 µM | TGI [55]: > 100 µM | TGI [56]: > 100 µM | TGI [57]: > 100 µM | TGI [58]: > 100 µM | TGI [59]: > 100 µM

From PubChem BioAssay (NCI)
